This note sets out measurements from patent US9540384B2, “Pyrrolidino heterocycles” (Hoffmann-La Roche Inc., priority 2012, dated 2017).

Structures are written as SMILES.

human PDE10A full length, sequence (Q9Y233 other isoform, or with tags, fused parts or gaps): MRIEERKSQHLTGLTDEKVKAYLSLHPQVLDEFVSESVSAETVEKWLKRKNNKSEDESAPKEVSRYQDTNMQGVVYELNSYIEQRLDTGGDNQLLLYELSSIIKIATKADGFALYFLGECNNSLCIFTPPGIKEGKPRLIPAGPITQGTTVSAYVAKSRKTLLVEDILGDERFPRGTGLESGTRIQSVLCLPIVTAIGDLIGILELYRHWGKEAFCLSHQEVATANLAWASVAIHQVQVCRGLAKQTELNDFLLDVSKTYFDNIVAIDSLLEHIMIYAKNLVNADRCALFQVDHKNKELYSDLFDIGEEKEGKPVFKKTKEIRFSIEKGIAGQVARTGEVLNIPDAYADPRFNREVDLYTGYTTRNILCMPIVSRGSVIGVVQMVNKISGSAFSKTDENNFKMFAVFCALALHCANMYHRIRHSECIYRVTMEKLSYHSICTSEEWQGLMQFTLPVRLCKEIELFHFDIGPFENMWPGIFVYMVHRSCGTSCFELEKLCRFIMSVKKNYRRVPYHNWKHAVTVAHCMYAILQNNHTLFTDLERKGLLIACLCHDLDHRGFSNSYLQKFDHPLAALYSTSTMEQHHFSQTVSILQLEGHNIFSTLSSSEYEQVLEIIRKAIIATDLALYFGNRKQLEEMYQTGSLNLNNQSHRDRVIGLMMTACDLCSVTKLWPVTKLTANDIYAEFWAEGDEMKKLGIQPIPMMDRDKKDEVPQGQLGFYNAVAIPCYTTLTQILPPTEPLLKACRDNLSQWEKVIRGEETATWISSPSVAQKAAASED

In the experiment the target is human PDE10A full length (Homo sapiens (Human), UniProt Q9Y233). As to the kind of experiment: human PDE10A full length Scintillation Proximity Assay (SPA). In kind it is biochemical. As to conditions: PDE10A enzyme, 50 nM cGMP + 50 nM [3H]-cGMP, 20 minutes at room temperature. As to the method:
The following test was carried out in order to determine the activity of the compounds of the present invention. PDE10 activity of the compounds of the present invention was determined using a Scintillation Proximity Assay (SPA)-based method similar to the one previously described (Fawcett, L. et al., Proc Natl Acad Sci USA (2000) 97(7):3702-3707).
The human PDE10A full length assay was performed in 96-well micro titer plates. The reaction mixture of 50 μl contained 20 mM HEPES pH=7.5/10 mM MgCl2/0.05 mg/ml BSA (Sigma cat. #A-7906), 50 nM cGMP (Sigma, cat. #G6129) and 50 nM [3H]-cGMP (GE Healthcare, cat. #TRK392 S.A. 13.2 Ci/mmol), 3.75 ng/well PDE10A enzyme (Enzo Life Science, Lausen, Switzerland cat #SE-534) with or without a specific test compound. A range of concentrations of the potential inhibitor was used to generate data for calculating the concentration of inhibitor resulting in 50% of the effect (e.g. IC50, the concentration of the competitor inhibiting PDE10A activity by 50%). Non-specific activity was tested without the enzyme. The reaction was initiated by the addition of the substrate solution (cGMP and [3H]-cGMP) and allowed to progress for 20 minutes at room temperature. The reaction was terminated by adding 25 μl of YSi-SPA scintillation beads (GE Healthcare, cat. #RPNQ0150) in 18 mM zinc sulphate solution (stop reagent). After 1 h under shaking, the plate was centrifuged one minute at 170 g to allow beads to settle. Afterwards, radioactive counts were measured on a Perkin Elmer TopCount Scintillation plate reader.
In general terms: SPA uses beads or plates that emit light when radiolabelled molecules are held near them.
The term IC50 denotes the midpoint of a concentration-inhibition curve. Consider `Cc1ncc(C)n2nc(/C=C/c3cccc(N4CCCC4)n3)nc12` [Example 43, (E)-5,8-Dimethyl-2-(2-(6-(pyrrolidin-1-yl)pyridin-2-yl)vinyl)[1,2,4]triazolo[1,5-a]pyrazine], for which the IC50 turned out to be 12 nM.
As to `Cc1oc(-c2ccccc2)nc1CCc1cccc(N2CCCC2)n1` [Example 12, 2-[2-(5-Methyl-2-phenyl-oxazol-4-yl)-ethyl]-6-pyrrolidin-1-yl-pyridine], the IC50 turned out to be 2000 nM.
With `COc1c(C)cnc(/C=C/c2cccc(N3CCCC3)n2)c1C` [Example 3, (E)-4-methoxy-3,5-dimethyl-2-(2-(6-(pyrrolidin-1-yl)pyridin-2-yl)vinyl)pyridine], the IC50 is 790 nM.
Take `CN(C)c1nc(CCc2cccc(N3CCC(CO)C3)n2)nc2ccccc12` (stereo not drawn) [Example 34, (1-(6-(2-(4-(Dimethylamino)quinazolin-2-yl)ethyl)pyridin-2-yl)pyrrolidin-3-yl)methanol]: the IC50 came out at 1630 nM.
The same measure for `Clc1ccc2nc(CCc3cccc(N4CCCC4)n3)nc(N3CCOCC3)c2c1` [Example 20, 4-(6-Chloro-2-(2-(6-(pyrrolidin-1-yl)pyridin-2-yl)ethyl)quinazolin-4-yl)morpholine]: 3.3 nM; for `Clc1ccc2nc(OCc3cccc(N4CCCC4)n3)nc(N3CCOCC3)c2c1` [Example 13, 4-(6-Chloro-2-((6-(pyrrolidin-1-yl)pyridin-2-yl)methoxy)quinazolin-4-yl)morpholine]: 2.5 nM.
The same measure for `CN(C)c1cccc(/C=C/c2nc(N(C)C)c3cc(Cl)ccc3n2)n1` [Example 41, (E)-6-Chloro-2-(2-(6-(dimethylamino)pyridin-2-yl)vinyl)-N,N-dimethylquinazolin-4-amine]: 750 nM; for `CC1CCCN1c1cccc(/C=C/c2nc(N(C)C)c3cc(Cl)ccc3n2)n1` (stereo not drawn) [Example 35, (E)-6-Chloro-N,N-dimethyl-2-(2-(6-(2-methylpyrrolidin-1-yl)pyridin-2-yl)vinyl)quinazolin-4-amine]: 27 nM.
The same measure for `c1cc(COc2nc(N3CCOCC3)c3ccccc3n2)nc(N2CCCC2)c1` [Example 16, 4-(2-((6-(Pyrrolidin-1-yl)pyridin-2-yl)methoxy)quinazolin-4-yl)morpholine]: 50 nM; for `Cc1c(C(F)(F)F)nc2ccc(NCc3cccc(N4CCCC4)n3)nn12` [Example 57, 3-Methyl-N-((6-(pyrrolidin-1-yl)pyridin-2-yl)methyl)-2-(trifluoromethyl)imidazo[1,2-b]pyridazin-6-amine]: 200 nM.
On to `Cc1cn2nc(OCc3cccc(N4CCCC4)n3)ccc2n1` [Example 54, 2-Methyl-6-((6-(pyrrolidin-1-yl)pyridin-2-yl)methoxy)imidazo[1,2-b]pyridazine], for which the IC50 amounted to 260 nM.
Consider `Cc1nc2nc(CCc3cccc(N4CCCC4)n3)[nH]c(=O)c2n1C` [Example 28, 7,8-Dimethyl-2-(2-(6-(pyrrolidin-1-yl)pyridin-2-yl)ethyl)-1H-purin-6(7H)-one], for which the IC50 came to 2730 nM.
The same measure for `Cc1nc2ccccc2nc1OCc1cccc(N2CCCCC2)n1` [Example 15, 2-Methyl-3-((6-(piperidin-1-yl)pyridin-2-yl)methoxy)quinoxaline]: 1680 nM; for `CN(C)c1cccc(CCc2nc(N(C)C)c3cc(Cl)ccc3n2)n1` [Example 42, 6-Chloro-2-(2-(6-(dimethylamino)pyridin-2-yl)ethyl)-N,N-dimethyl-quinazolin-4-amine]: 1680 nM; for `COc1c(C)cnc(/C=C/c2cccc(N3CCOCC3)n2)c1C` [Example 2, (E)-4-(6-(2-(4-Methoxy-3,5-dimethylpyridin-2-yl)vinyl)pyridin-2-yl)morpholine]: 8000 nM.
With `CN(C)c1nc(CCc2cccc(N(C)CCO)n2)nc2ccc(Cl)cc12` [Example 40, 2-((6-(2-(6-Chloro-4-(dimethylamino)quinazolin-2-yl)ethyl)pyridin-2-yl)(methyl)amino)ethanol] the figure was 2160 nM; with `Cc1nn2ccc(CCc3cccc(N4CCCC4)n3)nc2c1C` [Example 58, 2,3-Dimethyl-5-(2-(6-(pyrrolidin-1-yl)pyridin-2-yl)ethyl)pyrazolo[1,5-a]pyrimidine], 300 nM; with `Cn1ncc2c(N3CCOCC3)nc(OCc3cccc(N4CCCC4)n3)nc21` [Example 18, 4-(1-Methyl-6-((6-(pyrrolidin-1-yl)pyridin-2-yl)methoxy)-1H-pyrazolo-[3,4-d]pyrimidin-4-yl)morpholine], 276 nM.
With `Cc1nn2ccc(OCc3cccc(N4CCCC4)n3)nc2c1C` [Example 53, 2,3-Dimethyl-5-((6-(pyrrolidin-1-yl)pyridin-2-yl)methoxy)pyrazolo[1,5-a]pyrimidine] the figure was 69 nM; with `Cc1cc(C)n2nc(CCc3cccc(N4CCCC4)n3)nc2n1` [Example 48, 5,7-Dimethyl-2-[2-(6-pyrrolidin-1-yl-pyridin-2-yl)-ethyl]-[1,2,4]triazolo[1,5-a]pyrimidine], 110 nM; with `CN(C)c1nc(/C=C/c2cccc(N3CCCC3=O)n2)nc2ccc(Cl)cc12` [Example 36, (E)-1-(6-(2-(6-chloro-4-(dimethylamino)quinazolin-2-yl)vinyl)pyridin-2-yl)pyrrolidin-2-one], 820 nM.
Take `Cc1ncc(C)n2nc(/C=C/c3cncc(N4CCCC4)n3)nc12` [Example 50, (E)-5,8-Dim ethyl-2-(2-(6-(pyrrolidin-1-yl)pyrazin-2-yl)vinyl)[1,2,4]triazolo[1,5-a]pyrazine]: the IC50 turned out to be 18 nM.
With `Cc1nc(C)c(CCc2cccc(N3CCCC3)n2)nc1C` [Example 8, 2,3,5-Trimethyl-6-(2-(6-(pyrrolidin-1-yl)pyridin-2-yl)ethyl)pyrazine] the figure was 600 nM; with `Cc1nc2ccccc2nc1OCc1cccc(N2CCCC2)n1` [Example 9, 2-Methyl-3-((6-(pyrrolidin-1-yl)pyridin-2-yl)methoxy)quinoxaline], 30 nM; with `Cc1nc2ccc(OCc3cccc(N4CCCC4)n3)nn2c1C` [Example 44, 2,3-Dimethyl-6-((6-(pyrrolidin-1-yl)pyridin-2-yl)methoxy)imidazo[1,2-b]pyridazine], 160 nM.
On to `CN(C)c1nc(CCc2cccc(N3CCC(O)C3)n2)nc2ccc(Cl)cc12` (stereo not drawn) [Example 31, 1-(6-(2-(6-Chloro-4-(dimethylamino)quinazolin-2-yl)ethyl)pyridin-2-yl)pyrrolidin-3-ol], for which the IC50 is 770 nM.
The same measure for `Clc1ccc2nc(/C=C/c3cccc(N4CCCC4)n3)nc(N3CCOCC3)c2c1` [Example 19, (E)-4-(6-Chloro-2-(2-(6-(pyrrolidin-1-yl)pyridin-2-yl)vinyl)quinazolin-4-yl)morpholine]: 6.3 nM; for `CCc1nc2ccc(OCc3cccc(N4CCCC4)n3)nn2c1C` [Example 52, 2-Ethyl-3-methyl-6-((6-(pyrrolidin-1-yl)pyridin-2-yl)methoxy)imidazo[1,2-b]pyridazine]: 540 nM; for `CN(C)c1nc(OCc2cccc(N3CCCC3)n2)nc2ccc(Cl)cc12` [Example 17, 6-Chloro-N,N-dimethyl-2-((6-(pyrrolidin-1-yl)pyridin-2-yl)methoxy)quinazolin-4-amine]: 7 nM.
In the case of `Cc1nc2ccc(CCc3cccc(N4CCCC4)n3)nn2c1C` [Example 49, 2,3-Dmethyl-6-(2-(6-(pyrrolidin-1-yl)pyridin-2-yl)ethyl)imidazo[1,2-b]pyridazine], the IC50 was determined as 630 nM.
